Laboratory results taken from patent US7265152B2 (ViroPharma Incorporated, priority 2002, dated 2007).

Each compound was assayed on HCV replicon (BB7 sequence) in Huh-7-Clone A cells (assay: HCV replicon assay: ELISA of NS5A protein in replicon-containing cells (Inhibition of Viral RNA Replication)). Conditions: Hepatitis C virus; HCV replicon assay; ranges of 50% effective concentration (EC50); read-out: Replicon.
Assay type: cell-based
From the text: Antiviral activity of representative compounds of the invention was first evaluated in a human liver-derived cell line (Huh-7-Clone A) containing the HCV replicon (BB7 sequence) (See Lohmann et al. Science. 1999, 285:110-3; Blight K J et al., Science. 2000, 290:1972-4; Pietschmann, T. et al., J. Virol. 2001, 73:1252-1264; and Lohmann, V. et al., J. Virol. 2001, 75:1437-1449). The HCV replicon is a subgenomic viral RNA that expresses the HCV proteins required for its own replication. These proteins include non-structural proteins NS3, NS4A, NS4B, NS5A and NS5B. The replicon also contains a foreign gene encoding a drug-selectable marker (neomycin phosphotransferase) to allow for G418 (neomycin) selection of cells that contain the replicon.
An ELISA (enzyme-linked immunosorbant assay) was used to determine the effect of compounds within the scope of the invention on the amount of HCV NS5A protein produced after a 72-hour incubation of the replicon-containing cells in the presence of varying concentrations of compound. COSTAR® 96-well cell culture plates were used but other known cell culture plates may be used. After incubation, media is removed from wells and the cells are fixed to the assay plate using 0.05% glutaraldehyde. The glutaraldehyde is then washed off using phosphate-buffered saline (PBS) following a 1 hour incubation and cells are blocked for non-specific antibody binding using for example SUPERBLOCK® reagent (blocking buffer) in PBS. The blocking agent is rinsed from the cells with PBS after 1 hour at 37° C. and primary monoclonal antibody is added to each well containing compound. Primary antibody is incubated for 1 hour at 37° C. and rinsed 3 times with PBS containing 0.02% TWEEN-20™ before addition of Horseradish Peroxidase (HRP) conjugated secondary antibody. HRP is incubated for 1 hour at 37° C. and rinsed several times, first with PBS/TWEEN-20™ followed by PBS alone. To quantify peroxidase activity, 3,3′,5, 5′-tetramethylbenzidine (TMB) substrate is added to the plate and after 30 minutes, the plates are read in an ELISA plate reader at an OD of 650 nm. Compound dose response was measured in an 8-point dose curve diluted serially to determine the inhibitory concentration at 50% (EC50 value). […] Ranges of 50% effective concentrations (EC50s) for representative compounds within the scope of this invention are listed in Table 1. Preferred compounds have 50% effective concentrations at about 30 μM or less, more preferred compounds have 50% effective concentrations at about 5 μM or less, and most preferred compounds have 50% effective concentrations at about 0.5 μM or less.

Row | SMILES | EC50
1 | CNC(=O)c1c(-c2ccc(F)cc2)oc2cc(NS(C)(=O)=O)c(-c3c(C)noc3C)cc12 [Example 407, 5-(3,5-Dimethyl-isoxazol-4-yl)-2-(4-fluoro-phenyl)-6-methanesulfonylamino-benzofuran-3-carboxylic acid methylamide] | < 10 µM

Each compound was assayed against T1, HCV NS5B (Hepatitis C virus genotype 1b, UniProt Q9WMX2) (assay: Inhibition of viral RNA-dependent RNA polymerase (RdRp), in vitro biochemical assay). Conditions: HCV NS5B RdRp, BB7 (genotype 1b); reported as class symbols; read-out: HCV pol-BB7 IC50.
T1 construct: fusion protein, of which the carboxyl terminal 21 amino acids were removed to enhance its solubility; His tag (GSHHHHHH); made in house; host or cells: E. coli
Parameters: species or system HCV genotype 1b virus (BB7)
From the text: The HCV NS5B-directed RdRp activity was established and characterized in a standard in vitro biochemical assay using a purified HCV NS5B protein derived from the consensus sequence of a patient infected with HCV genotype 1b virus (BB7). (See Blight K J et al., Science. 2000, 290:1972-4). The NS5B consensus sequence was cloned and expressed in E. coli as a histidine tagged (GSHHHHHH) fusion protein, of which the carboxyl terminal 21 amino acids were removed to enhance its solubility.
In addition to evaluating their activity in the replicon assay, representative compounds within the scope of the present invention, as shown in examples 1-453 of Table 1, were also evaluated for antiviral activity using this assay. A measure of the inhibitory activity of compounds of the invention may be expressed as IC50 values. IC50 values represent the concentration of the compound at which 50% of the RdRp activity is inhibited. […] These low concentrations of test compounds required to achieve 50% inhibition of the RdRp activity indicate that the compounds of the invention are effective at inhibiting RNA synthesis by viral RdRp enzymes.

Row | SMILES | IC50
2 | CNC(=O)c1c(-c2ccc(F)cc2)oc2cc(N(CC(C)O)S(C)(=O)=O)c(O)cc12 (stereo not drawn) [Example 438, 2-(4-Fluoro-phenyl)-5-hydroxy-6-[(2-hydroxy-propyl)-methanesulfonyl-amino]-benzofuran-3-carboxylic acid methylamide] | ≤ 0.5 µM
3 | CNC(=O)c1c(-c2ccc(F)cc2)oc2cc(N(CC(C)O)S(C)(=O)=O)c(OC)cc12 (stereo not drawn) [Example 439, 2-(4-Fluoro-phenyl)-6-[(2-hydroxy-propyl)-methanesulfonyl-amino]-5-methoxy-benzofuran-3-carboxylic acid methylamide] | ≤ 0.5 µM
4 | CCc1cc2c(C(=O)NC)c(-c3ccc(F)cc3)oc2cc1C1CCCN1C(C)=O (stereo not drawn) [Example 440, 6-(1-Acetyl-pyrrolidin-2-yl)-5-ethyl-2-(4-fluoro-phenyl)-benzofuran-3-carboxylic acid methylamide] | ≤ 0.5 µM
5 | CNC(=O)c1c(-c2ccc(F)cc2)oc2cc(C3CCCN3C(=O)C3CC3)c(OC(C)C)cc12 (stereo not drawn) [Example 448, 6-(1-Cyclopropanecarbonyl-pyrrolidin-2-yl)-2-(4-fluoro-phenyl)-5-isopropoxy-benzofuran-3-carboxylic acid methylamide] | ≤ 0.5 µM
6 | CNC(=O)c1c(-c2ccc(F)cc2)oc2cc(-c3nnco3)c(OC)cc12 [Example 449, 2-(4-Fluoro-phenyl)-5-methoxy-6-[1,3,4]oxadiazol-2-yl-benzofuran-3-carboxylic acid methylamide] | ≤ 0.5 µM
7 | CNC(=O)c1c(-c2ccc(F)cc2)oc2cc(N(C)S(C)(=O)=O)c(-c3cccs3)cc12 [Example 450, 2-(4-Fluoro-phenyl)-6-(methanesulfonyl-methyl-amino)-5-thiophen-2-yl-benzofuran-3-carboxylic acid methylamide] | ≤ 0.5 µM
8 | CNC(=O)c1c(-c2ccc(F)cc2)oc2cc(N(CC(O)c3ccc(F)cc3)S(C)(=O)=O)c(O)cc12 (stereo not drawn) [Example 451, 2-(4-Fluoro-phenyl)-6-{[2-(4-fluoro-phenyl)-2-hydroxy-ethyl]-methanesulfonyl-amino}-5-hydroxy-benzofuran-3-carboxylic acid methylamide] | ≤ 0.5 µM
9 | CNC(=O)c1c(-c2ccccc2)oc2ccc(O)cc12 [Example 453, 5-Hydroxy-2-phenyl-benzofuran-3-carboxylic acid methylamide] | 5 to 30 µM

Same assay, conditions: HCV NS5B RdRp, BB7; reported as range class; read-out: HCV pol-BB7 IC50

Row | SMILES | IC50
10 | CNC(=O)c1c(-c2ccc(F)cc2)oc2cc(OCc3ccccc3)c(OC(C)C)cc12 [Example 194, 6-Benzyloxy-2-(4-fluoro-phenyl)-5-isopropoxy-benzofuran-3-carboxylic acid methylamide] | 0.5 to 5 µM

Same assay, conditions: HCV NS5B RdRp, BB7 genotype 1b; read-out: HCV pol-BB7 IC50

Row | SMILES | IC50
11 | CNC(=O)c1c(-c2ccc(F)cc2)oc2cc(Nc3cc(C)nn3C)c(OC(C)C)cc12 [Example 127, 6-(2,5-Dimethyl-2H-pyrazol-3-ylamino)-2-(4-fluoro-phenyl)-5-isopropoxy-benzofuran-3-carboxylic acid methylamide] | 5 to 30 µM
12 | CNC(=O)c1c(-c2ccc(F)cc2)oc2cc(N3CCOCC3)c(OCc3ccncc3)cc12 [Example 128, 2-(4-Fluoro-phenyl)-6-morpholin-4-yl-5-(pyridin-4-ylmethoxy)-benzofuran-3-carboxylic acid methylamide] | ≤ 0.5 µM
13 | CNC(=O)c1c(-c2ccc(F)cc2)oc2cc(C#N)c(OC(C)C)cc12 [Example 129, 6-Cyano-2-(4-fluoro-phenyl)-5-isopropoxy-benzofuran-3-carboxylic acid methylamide] | ≤ 0.5 µM

Same assay, conditions: HCV NS5B polymerase, BB7 (genotype 1b); values given as range classes A-D; read-out: HCV pol-BB7 IC50

Row | SMILES | IC50
14 | CNC(=O)c1c(-c2ccc(F)cc2)oc2cc(N(C)S(C)(=O)=O)c(OCc3nccn3Cc3ccccc3)cc12 [Example 399, 5-(1-Benzyl-1H-imidazol-2-ylmethoxy)-2-(4-fluoro-phenyl)-6-(methanesulfonyl-methyl-amino)-benzofuran-3-carboxylic acid methylamide] | ≤ 0.5 µM
15 | CNC(=O)c1c(-c2ccc(F)cc2F)oc2cc(-c3c(C)noc3C)c(OC)cc12 [Example 400, 2-(2,4-Difluoro-phenyl)-6-(3,5-dimethyl-isoxazol-4-yl)-5-methoxy-benzofuran-3-carboxylic acid methylamide] | ≤ 0.5 µM
16 | CNC(=O)c1c(-c2ccc(F)cc2)oc2cc(C(C)=O)ccc12 [Example 411, 6-Acetyl-2-(4-fluoro-phenyl)-benzofuran-3-carboxylic acid methylamide] | 0.5 to 5 µM
17 | CNC(=O)c1c(-c2ccc(F)cc2)oc2cc(N(C)S(C)(=O)=O)c(OCC(C)(C)O)cc12 [Example 412, 2-(4-Fluoro-phenyl)-5-(2-hydroxy-2-methyl-propoxy)-6-(methanesulfonyl-methyl-amino)-benzofuran-3-carboxylic acid methylamide] | ≤ 0.5 µM
18 | CCN(CC)C(=O)COc1cc2c(C(=O)NC)c(-c3ccc(F)cc3)oc2cc1N(C)S(C)(=O)=O [Example 413, 5-Diethylcarbamoyl-methoxy-2-(4-fluoro-phenyl)-6-(methanesulfonyl-methyl-amino)-benzofuran-3-carboxylic acid methylamide] | ≤ 0.5 µM
19 | CCOc1cc2c(C(=O)NC)c(-c3ccc(F)cc3)oc2cc1-c1c(C)noc1C [Example 414, 6-(3,5-Dimethyl-isoxazol-4-yl)-5-ethoxy-2-(4-fluoro-phenyl)-benzofuran-3-carboxylic acid methylamide] | ≤ 0.5 µM
20 | CNC(=O)c1c(-c2ccc(F)cc2)oc2cc(CN3CC(O)=C(C#N)C3=O)c(OC)cc12 [Example 431, 6-(3-Cyano-4-hydroxy-2-oxo-2,5-dihydro-pyrrol-1-ylmethyl)-2-(4-fluoro-phenyl)-5-methoxy-benzofuran-3-carboxylic acid methylamide] | ≤ 0.5 µM
21 | CNC(=O)c1c(-c2ccc(F)cc2)oc2cc(-c3c(C)noc3C)c(OCCN3CCOCC3)cc12 [Example 433, 6-(3,5-Dimethyl-isoxazol-4-yl)-2-(4-fluoro-phenyl)-5-(2-morpholin-4-yl-ethoxy)-benzofuran-3-carboxylic acid methylamide] | ≤ 0.5 µM
22 | CNC(=O)c1c(-c2ccc(F)cc2)oc2cc(-c3c(C)noc3C)c(OCCCN3CCCCC3)cc12 [Example 434, 6-(3,5-Dimethyl-isoxazol-4-yl)-2-(4-fluoro-phenyl)-5-(3-piperidin-1-yl-propoxy)-benzofuran-3-carboxylic acid methylamide] | 0.5 to 5 µM

Same assay, conditions: purified His-tagged NS5B (BB7), carboxyl terminal 21 amino acids removed; read-out: HCV pol-BB7 IC50

Row | SMILES | IC50
23 | CNC(=O)c1c(-c2ccccc2)oc2ccc(OC(F)(F)F)cc12 [Example 2, 2-Phenyl-5-trifluoromethoxy-benzofuran-3-carboxylic acid methylamide] | 0.5 to 5 µM
24 | CNC(=O)c1c(-c2ccc(F)cc2)oc2ccc(OCC(F)(F)F)cc12 [Example 64, 2-(4-Fluoro-phenyl)-5-(2,2,2-trifluoro-ethoxy)-benzofuran-3-carboxylic acid methylamide] | 0.5 to 5 µM
